“Also recorded” adds a separate entry of the source. One block for each substance: values may come before it. Bridge positions count the residues as written; N and C are the ends. Ends that are not written are not given here.
Tests used:
[1] = test system: B:13-21-specific IIT-3 and B:12-20-specific 9B9 T cell hybridoma; assay: T cell hybridoma responses to C3g7 APCs treated with or without chloroquine and pulsed with antigens; type: cell-based; conditions: C3g7 APCs with or without 100 μM chloroquine for 2 h
Method: (§1) In FIG. 5i, ConA-stimulated peritoneal macrophages were treated with 0.2 or 1 μM S961 for 1 h at 37° C. and were then cultured with the IIT-3 T cell hybridoma that recognizes the 13-21 peptide, in the presence of serially diluted insulin (19278; Sigma). In FIG. 6e, C3g7 cells were treated with chloroquine for 2 h at 37° C., washed, pulsed with the antigens, and cultured with T cell hybridomas. After incubation for 18 h, the culture supernatants were assayed for IL-2 production.

[2] = test system: 10E11 CD4 T cells; assay: Two-photon motility assay of anti-HEL 10E11 T cells in mice given HEL; type: in vivo, NOD mice; conditions: inguinal lymph nodes, day 3 post transfer, indicated amounts of HEL
Method: (§2) CFSE- or CMTMR-labelled T cells were mixed 1:1 and were injected intravenously. For all the two-photon experiments, 2×10^6 T cells with either label were transferred. […] All the recipient mice were 3-4-week-old female mice unless otherwise mentioned. For experiments in FIG. 4f, FACS-sorted 8F10 T cells from pooled iLNs of 8-10 NOD or B16A mice were adoptively transferred intravenously into 4-6-week old NOD. Rag1÷ recipients (10^5 cells per mouse).
Lymph nodes were removed, attached to coverslips, placed in CO2-independent medium (Gibco) at room temperature and immediately imaged in a perfusion chamber to simulate blood flow (36.5° C. DMEM; 95% O2 and 5% CO2). Two-photon microscopy images were collected using a customized Leica SP8 Two-Photon Microscope (Leica Microsystems) equipped with a 25× and 0.95 numerical aperture water-immersion objective and a Mai Tai HP DeepSee Laser (Spectra-Physics) tuned to 840 nm. Fluorescence emission was guided directly to external hybrid photodetectors (Leica/Hamamatsu). […]
(§3) For cell tracking, two or three regions of one lymph node were randomly selected and cropped. […] We also calculated the meandering index and the motility coefficient for each track. […] The mean track velocities (μm/min) were calculated for individual tracks as previously described^11.

[3] = target: T1, insulin receptor (Mus musculus, UniProt P15208); assay: In vivo blockade of insulin receptor by S961 infusion via osmotic pump, blood glucose; set-up: from tissue; host or cells: whole animal (NOD mice), in vivo; conditions: S961 20 nMol/week via osmotic pump, 3-week old NOD mice, versus PBS
Method: The S961 peptide ([…] (SEQ ID NO: 33)) was synthesized by LifeTein, with an intrachain disulphide bridge between Cys33 and Cys40 (underlined). S961 (20 nMol/week) or control PBS was filled into the Alzet osmotic pump (2001 model, Durect) and inserted subcutaneously in the back of anaesthetized mice through an incision between scapula. Blood glucose levels were monitored twice a day (Chemstrip 2GP; Roche); mice with a level above 250 mg/dl for two consecutive measurements were considered diabetic.

[4] = target: T1, insulin receptor; assay: Two-photon imaging motility assay of transferred T cells in lymph nodes of mice infused with S961 or PBS; type: in vivo, NOD mice; set-up: from tissue; host or cells: whole animal (NOD mice), in vivo; conditions: S961 infusion versus PBS, day 3 post transfer
Method: as §2
Lymph nodes were removed, attached to coverslips, placed in CO2-independent medium (Gibco) at room temperature and immediately imaged in a perfusion chamber to simulate blood flow (36.5° C. DMEM; 95% O2 and 5% CO2). […] Fluorescence emission was guided directly to external hybrid photodetectors (Leica/Hamamatsu). […]
as §3
The S961 peptide ([…] (SEQ ID NO: 33)) was synthesized by LifeTein, with an intrachain disulphide bridge between Cys33 and Cys40 (underlined). […] Blood glucose levels were monitored twice a day (Chemstrip 2GP; Roche); mice with a level above 250 mg/dl for two consecutive measurements were considered diabetic.

[5] = target: T1, insulin receptor; assay: Antigen presentation assay: ConA-activated peritoneal macrophages treated with S961, insulin pulse, IIT-3 T cell hybridoma; type: cell-based; set-up: endogenous in cells; host or cells: ConA-stimulated peritoneal macrophages; conditions: 0.2 or 1 μM S961 for 1 h before insulin; IIT-3 hybridoma, IL-2 production
Method: as §1

[6] = test system: I-A^g7-expressing APCs; assay: Intravenous injection of Alexa Fluor 488-conjugated B:9-23, binding to splenic and thymic APCs by flow cytometry; type: in vivo, mice; conditions: 100 μg intravenously, one hour later
Method: FIG. 11a-FIG. 11c: Characterization of circulating B:9-23 and its localization into lymphoid organs. a, Unmodified synthetic B:9-23 (3 pmol) was spiked into 1 ml PBS, purified using C18 tips, lyophilized, and analyzed by nLC-MS/MS. […] An hour later, spleens and thymi were harvested, digested with liberase and DNase, and binding to splenic and thymic APCs was measured by flow cytometry. b, Representative FACS plots showing the binding of B:9-23 to splenic XCR1^+ and Sirpα^+ dendritic cell (DC) subsets and B cells (top). The bar graph summarizes cumulative results from individual mice (each point), pooled from three independent experiments. ns, not significant; **P<0.05; ***P<0.01; ****P<0.005, two-tailed unpaired Student's t-test. c, Representative FACS plots showing the binding of B:9-23 to thymic XCR1^+ and Sirpα^+ DC subsets and to CD45^− cells expressing MHCII. Data are mean±S.D from five individual mice per strain from two independent experiments.

T1 sequence (P15208 28-748 limits assumed): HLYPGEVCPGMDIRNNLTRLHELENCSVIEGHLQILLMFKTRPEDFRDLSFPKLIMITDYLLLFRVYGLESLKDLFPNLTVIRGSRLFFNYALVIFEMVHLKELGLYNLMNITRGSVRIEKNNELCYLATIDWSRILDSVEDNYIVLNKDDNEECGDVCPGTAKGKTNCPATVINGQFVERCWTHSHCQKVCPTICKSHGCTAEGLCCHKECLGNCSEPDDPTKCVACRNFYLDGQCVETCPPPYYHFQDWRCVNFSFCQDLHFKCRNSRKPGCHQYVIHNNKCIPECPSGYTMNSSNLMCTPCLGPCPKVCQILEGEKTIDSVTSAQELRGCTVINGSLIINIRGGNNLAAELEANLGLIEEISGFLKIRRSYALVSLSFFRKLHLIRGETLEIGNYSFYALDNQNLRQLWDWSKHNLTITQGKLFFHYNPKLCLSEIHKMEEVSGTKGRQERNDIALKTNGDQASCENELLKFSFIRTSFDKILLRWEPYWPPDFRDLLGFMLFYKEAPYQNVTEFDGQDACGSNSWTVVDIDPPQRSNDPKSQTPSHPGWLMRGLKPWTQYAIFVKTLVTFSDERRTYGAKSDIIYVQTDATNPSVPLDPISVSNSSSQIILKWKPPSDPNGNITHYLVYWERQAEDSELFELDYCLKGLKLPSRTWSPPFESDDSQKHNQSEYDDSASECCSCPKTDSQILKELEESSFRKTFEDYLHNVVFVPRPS
T1 sequence (P15208 753-1372 partner limits assumed): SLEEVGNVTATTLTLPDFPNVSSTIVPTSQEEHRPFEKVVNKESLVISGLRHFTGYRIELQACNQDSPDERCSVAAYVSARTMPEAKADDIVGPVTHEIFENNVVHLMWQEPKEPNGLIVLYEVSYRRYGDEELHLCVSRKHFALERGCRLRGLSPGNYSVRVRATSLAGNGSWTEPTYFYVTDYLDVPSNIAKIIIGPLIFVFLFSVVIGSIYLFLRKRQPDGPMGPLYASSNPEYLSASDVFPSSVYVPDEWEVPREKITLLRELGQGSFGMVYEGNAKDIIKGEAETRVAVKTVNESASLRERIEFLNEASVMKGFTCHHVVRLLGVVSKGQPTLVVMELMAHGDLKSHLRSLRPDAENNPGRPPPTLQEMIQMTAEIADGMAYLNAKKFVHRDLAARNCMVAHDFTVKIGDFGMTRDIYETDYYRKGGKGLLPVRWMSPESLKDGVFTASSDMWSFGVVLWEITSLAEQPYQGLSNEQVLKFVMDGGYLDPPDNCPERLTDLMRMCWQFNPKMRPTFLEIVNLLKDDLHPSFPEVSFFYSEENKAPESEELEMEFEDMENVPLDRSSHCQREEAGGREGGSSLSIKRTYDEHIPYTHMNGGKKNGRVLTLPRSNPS

Substance: B:9-23: insulin B-chain peptide, segment 9-23 (SHLVEALYLVCGERG)
need for internal processing for T cell reactivity [1]: not to B:9-23 or B:1-30 require internal processing

Substance: HEL: hen egg lysozyme, control antigen recognized by 10E11 CD4 T cells
10E11 T cell velocities [2]: progressive reduction of the 10E11 T cell velocities as the antigen amount increases

ability of ConA-activated macrophages to present insulin [5]: impaired
Substance: S961: insulin receptor antagonist peptide GSLDESFYDWFERQLGGGSGGSSLEEEWAQIQCEVWGRGCPSY (SEQ ID NO: 33), synthesized by LifeTein (disulfide 33-40; listed as Mus musculus)
blood glucose levels [3]: sustained increase in blood glucose levels | motility arrest of 8F10 T cells [4]: remained at a comparable level; also recorded: comparable level of motility arrest | reduction in mean velocity (motility) of transferred 4F7 T cells [4]: the magnitude of the reduction was significantly smaller than with PBS; also recorded: partial reduction of the 4F7 T cell motility

display by APCs in thymus [6]: not in thymus
Substance: fluorochrome-labelled B:9-23: Alexa Fluor 488-conjugated B:9-23 peptide (SHLVEALYLVCGERG; also: Alexa Fluor 488-conjugated (position not given here))
display by APCs in spleen [6]: rapidly displayed by I-A^g7-expressing APCs in spleen

Substance: insulin: insulin (19278; Sigma) used as antigen
need for internal processing for T cell reactivity [1]: require internal processing
